Assay results taken from patent US12227488B2, “Small molecule degraders of Helios and methods of use” (DANA-FARBER CANCER INSTITUTE, INC., priority 2018, dated 2025).

Assays:
CRBN and Helios (IKZF2) = biological target: T1, CRBN and Helios (IKZF2) (Homo sapiens, UniProt Q96SW2+Q9UKS7); assay: TR-FRET dimerization assay (CRBN-IKZF2 ternary complex formation); format: binding; conditions: n=1
T1 construct: His (N); Strep (N)
Description: A focused library of imide analogs was synthesized and assessed for their ability to induce dimerization between CRBN and Helios in a time-resolved fluorescence energy transfer (TR-FRET) assay (FIG. 1A).
Prior to TR-FRET measurements being conducted, the reactions were incubated for 15 min at rt. […] The TR-FRET signal of each data point was extracted by calculating the 520/490 nm ratios. Data from single measurements (n=1), each calculated as an average of at least three technical replicates per well per experiment are presented in Table 1.
BODIPY-labeled CRBN in complex with Damage Specific DNA Binding Protein 1 (DDB1) harboring an internal deletion of the flexible BPB propeller (DDB1AB-CRBN) and in vitro biotinylated IKZF2 were treated with increasing concentrations of the indicated compounds in the presence of tracer amounts of Terbium-Streptavidin (Tb-SA). Compound-induced recruitment of IKZF2 to CRBN was quantified following the 520/490 TR-FRET ratio using a PHERAstar® plate reader (BMG) utilizing two synchronized PMTs to reduce background.

IKZF2 = assay: Cellular degradation assay, eGFP-IKZF2Δ fusion with mCherry reporter in Flp-In 293 cells; format: cell-based; conditions: for IKZF2 GFP/RFP Relative Abundance: 5 h incubation, n=1
Description: (§1) IKZF1Δ, IKZF2Δ, GSPT1 and SALL4 ZnF1-2 were subcloned into mammalian pcDNA5/FRT Vector (Ampicillin and Hygromycin B resistant) modified to contain MCS-eGFP-P2A-mCherry. […] Following 2-3 passage cycle, FACS (FACSAria™ II, BD) was used to enrich for cells expressing eGFP and mCherry. Cells stably expressing the IKZF1Δ, IKZF2Δ, GSPT1 or SALL4 Znf1-2 GFP fusions with mCherry reporter were seeded at 30-50% confluency in 384-well plates with 50 μL FluoroBrite™ DMEM media (Thermo Fisher Scientific, A18967) containing 10% FBS per well a day before compound treatment. Compound titrations were dispensed using a D300e Digital Dispenser (HP), normalized to 0.5% DMSO, and incubated with cells for 5 hours.
(§2) The resulting images were analyzed using CellProfiler™. A series of image analysis steps (‘image analysis pipeline’) was constructed. First, the red and green channels were aligned and cropped to target the middle of each well (to avoid analysis of heavily clumped cells at the edges), and a background illumination function was calculated for both red and green channels of each well individually and subtracted to correct for illumination variations across the 384-well plate from various sources of error. An additional step was then applied to the green channel to suppress the analysis of large auto fluorescent artifacts and enhance the analysis of cell specific fluorescence by way of selecting for objects under a given size, 30 A.U., and with a given shape, speckles. mCherry-positive cells were then identified in the red channel filtering for objects between 8-60 pixels in diameter and using intensity to distinguish between clumped objects. The green channel was then segmented into GFP positive and negative areas and objects were labeled as GFP positive if at least 40% of it overlapped with a GFP positive area. The fraction of GFP-positive cells/mCherry-positive cells in each well was then calculated, and the green and red images were rescaled for visualization.
(§3) The degradation assay was performed as described above. […] Degradation was measured after 5 h of compound treatment and the concentrations that lead to half degradation at 5 h (DC50,5 h) were calculated using the nonlinear fit variable slope model (GraphPad Software).

IKZF1 = biological target: T2, IKZF1 (Homo sapiens, UniProt Q13422); assay: Cellular degradation assay, eGFP-IKZF1Δ fusion with mCherry reporter in Flp-In 293 cells; format: cell-based; conditions: for IKZF1 GFP/RFP Relative Abundance: 5 h incubation, n=1
T2 construct: expressed in transfected cells; host or cells: Flp-In 293
Description: as §1, §2, §3

[1] = compound concentration 6.6667E−05
[2] = compound concentration 6.6667E−06
[3] = compound concentration 6.6667E−07 (667 nM)
[4] = compound concentration 2.00E−05
[5] = compound concentration 2.00E−06
[6] = compound concentration 2.00E−07
[7] = half degradation at 5 h (DC50,5 h), triplicate, 11 point dose response

T1 sequence (Q96SW2 whole entry): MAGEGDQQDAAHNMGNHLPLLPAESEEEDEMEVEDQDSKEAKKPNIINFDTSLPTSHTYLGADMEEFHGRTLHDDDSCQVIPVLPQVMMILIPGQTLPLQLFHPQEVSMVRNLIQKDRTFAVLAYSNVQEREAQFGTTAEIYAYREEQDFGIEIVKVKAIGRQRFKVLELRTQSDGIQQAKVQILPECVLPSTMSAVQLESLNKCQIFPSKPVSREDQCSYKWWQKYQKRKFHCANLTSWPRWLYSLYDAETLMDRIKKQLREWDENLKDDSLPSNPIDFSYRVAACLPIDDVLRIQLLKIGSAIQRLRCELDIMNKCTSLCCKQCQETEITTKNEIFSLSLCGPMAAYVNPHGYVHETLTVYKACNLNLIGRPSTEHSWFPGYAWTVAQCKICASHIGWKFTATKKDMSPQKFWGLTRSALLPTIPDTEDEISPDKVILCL
T1 sequence (Q9UKS7 whole entry): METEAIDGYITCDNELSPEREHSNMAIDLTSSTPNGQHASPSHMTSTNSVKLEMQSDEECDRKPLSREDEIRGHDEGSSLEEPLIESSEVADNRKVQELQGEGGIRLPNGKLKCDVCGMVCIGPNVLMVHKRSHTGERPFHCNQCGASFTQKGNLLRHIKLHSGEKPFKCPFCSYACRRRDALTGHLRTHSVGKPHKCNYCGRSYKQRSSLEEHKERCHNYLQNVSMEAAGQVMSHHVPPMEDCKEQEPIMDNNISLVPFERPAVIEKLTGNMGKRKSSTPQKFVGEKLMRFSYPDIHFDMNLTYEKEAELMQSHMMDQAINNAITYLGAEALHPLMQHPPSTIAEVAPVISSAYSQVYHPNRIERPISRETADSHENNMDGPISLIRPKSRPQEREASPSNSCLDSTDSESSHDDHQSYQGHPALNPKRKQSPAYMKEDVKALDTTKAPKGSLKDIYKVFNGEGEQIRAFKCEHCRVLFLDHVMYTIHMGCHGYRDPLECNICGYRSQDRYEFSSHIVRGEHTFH
T2 sequence (Q13422 83-213 isoform Q13422-7 limits assumed): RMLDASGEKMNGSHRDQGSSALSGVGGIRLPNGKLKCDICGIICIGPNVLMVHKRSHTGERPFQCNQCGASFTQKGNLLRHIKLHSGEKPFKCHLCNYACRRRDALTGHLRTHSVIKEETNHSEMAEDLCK
T2 sequence (Q96SW2 whole entry partner, the tested form may be a part): as the sequence (Q96SW2 whole entry) above
T2 sequence (Q16531 2-1140 partner limits assumed): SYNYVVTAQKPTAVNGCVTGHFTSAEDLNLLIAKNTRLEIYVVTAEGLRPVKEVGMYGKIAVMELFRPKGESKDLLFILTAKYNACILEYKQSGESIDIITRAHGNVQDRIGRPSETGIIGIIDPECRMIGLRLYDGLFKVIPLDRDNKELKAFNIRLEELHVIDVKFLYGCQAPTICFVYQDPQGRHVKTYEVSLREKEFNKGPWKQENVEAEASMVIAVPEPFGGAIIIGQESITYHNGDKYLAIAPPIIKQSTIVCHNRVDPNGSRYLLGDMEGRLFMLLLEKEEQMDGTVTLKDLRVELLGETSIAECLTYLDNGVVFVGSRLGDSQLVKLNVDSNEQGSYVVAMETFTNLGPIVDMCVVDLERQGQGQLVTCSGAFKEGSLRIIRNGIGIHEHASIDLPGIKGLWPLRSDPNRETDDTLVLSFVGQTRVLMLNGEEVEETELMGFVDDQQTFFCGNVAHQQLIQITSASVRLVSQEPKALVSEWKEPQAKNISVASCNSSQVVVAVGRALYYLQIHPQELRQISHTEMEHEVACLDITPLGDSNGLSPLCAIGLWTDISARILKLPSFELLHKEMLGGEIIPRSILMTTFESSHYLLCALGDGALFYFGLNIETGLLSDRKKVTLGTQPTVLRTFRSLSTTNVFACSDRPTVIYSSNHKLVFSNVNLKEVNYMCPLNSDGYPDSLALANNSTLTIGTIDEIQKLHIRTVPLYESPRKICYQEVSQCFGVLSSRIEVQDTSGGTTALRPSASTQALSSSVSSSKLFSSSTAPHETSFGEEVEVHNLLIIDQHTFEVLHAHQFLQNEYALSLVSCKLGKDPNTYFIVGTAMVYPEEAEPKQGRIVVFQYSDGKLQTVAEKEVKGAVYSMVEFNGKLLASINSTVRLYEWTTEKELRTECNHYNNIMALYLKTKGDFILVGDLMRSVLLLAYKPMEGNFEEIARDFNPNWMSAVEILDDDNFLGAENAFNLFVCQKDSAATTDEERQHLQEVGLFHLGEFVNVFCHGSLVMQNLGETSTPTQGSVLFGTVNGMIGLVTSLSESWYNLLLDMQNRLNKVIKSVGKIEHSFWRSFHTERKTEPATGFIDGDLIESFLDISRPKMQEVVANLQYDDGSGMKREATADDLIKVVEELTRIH

Structure (SMILES)	TR-FRET-IKZF2 (Normalized to CC-885) (CRBN and Helios (IKZF2); [1])	TR-FRET-IKZF2 (Normalized to CC-885) (CRBN and Helios (IKZF2); [2])	TR-FRET-IKZF2 (Normalized to CC-885) (CRBN and Helios (IKZF2); [3])	IKZF2 GFP/RFP Relative Abundance (IKZF2; [4])	IKZF2 GFP/RFP Relative Abundance (IKZF2; [5])	IKZF2 GFP/RFP Relative Abundance (IKZF2; [6])	IKZF1 GFP/RFP Relative Abundance (IKZF1; [4])	IKZF1 GFP/RFP Relative Abundance (IKZF1; [5])	IKZF1 GFP/RFP Relative Abundance (IKZF1; [6])	DC50 (IKZF2; [7])	potency of IKZF1 degradation, in words (IKZF1; Table 3 summary)	DC50 (IKZF1; [7])
Cc1ccc(NC(=O)NCc2cccc(OC3=CC(=O)N(C4CCC(=O)NC4=O)C3=O)c2)cc1Cl (stereo not drawn) [Compound 64, 1-(3-chloro-4-methylphenyl)-3-(3-((1-(2,6-dioxopiperidin-3-yl)-2,5-dioxo-2,5-dihydro-1H-pyrrol-3-yl)oxy)benzyl)urea]	0.030	0.025	0.021	1.087	1.038	1.061	1.154	1.077	1.122	–	–	–
Cc1ccc(NC(=O)N[C@H](C)c2cccc(NC3=CC(=O)N(C4CCC(=O)NC4=O)C3=O)c2)cc1Cl (stereo partly drawn) [Compound 70, 1-(3-chloro-4-methylphenyl)-3-((1R)-1-(3-((1-(2,6-dioxopiperidin-3-yl)-2,5-dioxo-2,5-dihydro-1H-pyrrol-3-yl)amino)phenyl)ethyl)urea]	1.531	1.409	1.271	0.021	0.057	0.031	0.076	0.080	0.103	–	–	–
Cc1ccc(NC(=O)NC(CC(=O)N(C)C)c2cccc(NC3=CC(=O)N(C4CCC(=O)NC4=O)C3=O)c2)cc1Cl (stereo not drawn) [Compound 76, 3-(3-(3-chloro-4-methylphenyl)ureido)-3-(3-((1-(2,6-dioxopiperidin-3-yl)-2,5-dioxo-2,5-dihydro-1H-pyrrol-3-yl)amino)phenyl)-N,N-dimethylpropanamide]	1.961	1.657	1.577	0.027	0.036	0.032	0.103	0.069	0.107	–	–	–
Cc1ccc(NC(=O)CNc2cccc(NC3=CC(=O)N(C4CCC(=O)NC4=O)C3=O)c2)cc1Cl (stereo not drawn) [Compound 78, N-(3-chloro-4-methylphenyl)-2-((3-((1-(2,6-dioxopiperidin-3-yl)-2,5-dioxo-2,5-dihydro-1H-pyrrol-3-yl)amino)phenyl)amino)acetamide]	–	–	–	–	–	–	–	–	–	2.2 nM	most potent against IKZF1	1.9 nM
O=C1CCC(N2C(=O)C=C(Nc3cccc(CNC(=O)NCc4ccccc4)c3)C2=O)C(=O)N1 (stereo not drawn) [Compound 81, 1-benzyl-3-(3-((1-(2,6-dioxopiperidin-3-yl)-2,5-dioxo-2,5-dihydro-1H-pyrrol-3-yl)amino)benzyl)urea]	0.703	0.585	0.519	0.587	0.660	0.737	0.063	0.056	0.094	–	–	–
Cc1cc(CNC(=O)NCc2cccc(NC3=CC(=O)N(C4CCC(=O)NC4=O)C3=O)c2)ccc1Cl (stereo not drawn) [Compound 82, 1-(4-chloro-3-methylbenzyl)-3-(3-((1-(2,6-dioxopiperidin-3-yl)-2,5-dioxo-2,5-dihydro-1H-pyrrol-3-yl)amino)benzyl)urea]	0.999	0.975	0.838	0.158	0.220	0.293	0.085	0.085	0.069	–	–	–
Cc1ccc(NC(=O)NCc2cc(NC3=CC(=O)N(C4CCC(=O)NC4=O)C3=O)ccc2OC(=O)N(C)C)cc1Cl (stereo not drawn) [Compound 95, 2-((3-(3-chloro-4-methylphenyl)ureido)methyl)-4-((1-(2,6-dioxopiperidin-3-yl)-2,5-dioxo-2,5-dihydro-1H-pyrrol-3-yl)amino)phenyl Dimethylcarbamate]	0.124	0.109	0.094	1.070	1.058	1.029	0.944	0.904	0.960	–	–	–
Cc1ccc(NC(=O)N2Cc3ccc(NC4=CC(=O)N(C5CCC(=O)NC5=O)C4=O)cc3C2)cc1Cl (stereo not drawn) [Compound 107, N-(3-chloro-4-methylphenyl)-5-((1-(2,6-dioxopiperidin-3-yl)-2,5-dioxo-2,5-dihydro-1H-pyrrol-3-yl)amino)isoindoline-2-carboxamide]	0.086	0.066	0.066	0.225	1.034	1.048	0.245	1.043	0.997	–	–	–
Cc1ccc(NC(=O)N2CCc3ccc(NC4=CC(=O)N(C5CCC(=O)NC5=O)C4=O)cc3C2)cc1Cl (stereo not drawn) [Compound 109, N-(3-chloro-4-methylphenyl)-7-((1-(2,6-dioxopiperidin-3-yl)-2,5-dioxo-2,5-dihydro-1H-pyrrol-3-yl)amino)-3,4-dihydroisoquinoline-2(1H)-carboxamide]	0.463	0.640	0.506	0.563	0.313	0.539	0.189	0.101	0.142	–	–	–
O=C1CCC(N2C(=O)C=C(Nc3cccc(CCC(=O)Nc4ccc(C(F)(F)F)c(Cl)c4)c3)C2=O)C(=O)N1 (stereo not drawn) [Compound 129, N-(3-chloro-4-(trifluoromethyl)phenyl)-3-(3-((1-(2,6-dioxopiperidin-3-yl)-2,5-dioxo-2,5-dihydro-1H-pyrrol-3-yl)amino)phenyl)propanamide]	1.626	1.551	1.583	0.063	0.013	0.027	–	–	–	–	–	–
Cc1ccc(NC(=O)CC(C)c2cccc(NC3=CC(=O)N(C4CCC(=O)NC4=O)C3=O)c2)cc1Cl (stereo not drawn) [Compound 137]	1.665	1.677	1.665	0.023	0.009	0.011	–	–	–	–	–	–
CC(CC(=O)Nc1cccc(C(F)(F)F)c1)c1cccc(NC2=CC(=O)N(C3CCC(=O)NC3=O)C2=O)c1 (stereo not drawn) [Compound 140, 3-(3-((1-(2,6-dioxopiperidin-3-yl)-2,5-dioxo-2,5-dihydro-1H-pyrrol-3-yl)amino)phenyl)-N-(3-(trifluoromethyl)phenyl)butanamide]	2.291	1.72	1.626	0.174	0.017	0.013	–	–	–	–	–	–
